Read-outs that look alike come from different tables or passages of the source.
Tests used:
pre-term lamb BPD model = experiment: Pre-term lamb BPD model: BAL fluid protein, VEGF, ICAM-1; format: in vivo; conditions: for VEGF concentrations in BAL fluid: vs vehicle after 10 days
Procedure: A total 9 lambs were used for this study. One dose of Curosurf was given intratracheally to the PT lamb just after birth. Randomized doses of compound AVR-48 (8) (0, 0.1, 0.3, 1.0 and 3.0 mg/kg) were administered intravenously every 12 hr after the initial dose that will be given at 6 hr after delivery to n=2-4 lambs via slow intravenous injection. The beginning treatment at 6 hr post-delivery is selected to represent the human case where neonatologists attempt to allow an infant to breath without mechanical ventilation, if possible, and then begin invasive respiratory support as necessary. Whole blood was drawn from PT lambs at the time of delivery (“pre-dose”), immediately after dosing (IAD), at 15, 30, 45, and 60 min, and at 2, 4, 8, 12, 24, 48, 72, and 96 hr after the initial dose. Plasma extractions and bioanalysis of compound AVR-48 (8) were performed using a qualified bioanalysis method already developed by us. The PK parameters were calculated following both non-Compartmental Pharmacokinetic Modeling and population Pharmacokinetic Modeling as described by Roberts et al previously (Roberts, Stockmann et al. 2016). Blood was collected every 15 min for the first 90 min of postnatal life, followed by every 3 hours for 12 hours and then spaced at 1.5 d, 2.5 d, 3.5 d, 6.5 d, and 9.5 d for analysis of cytokines (Visconti, Senthamaraikannan et al. 2018) and VEGF levels (Albertine, Dahl et al. 2010). The blood samples also were analyzed for hematology and liver enzymes. After 6-7 d of mechanical ventilation, the lambs will be weaned from mechanical ventillation and weaned to non-invasive support for 3 d to ascertain longer-term outcome (Dahl, Bowen et al. 2018). Terminally, the PT lambs were euthanized after 10 days and their heart/lungs and brain were removed. Ex vivo BAL of the right cranial lobe (it has its own bronchus, pulmonary artery and vein) was done for similar analyses. Tracheal aspirates were collected according to the protocol for cytokines, BAL protein, ICAM-1 and VEGF. The spleen was collected to analyze immune cell population, using FACS.
Bronchoalveolar lavage fluid (BALF) Analysis. Pups were sacrificed on PN14, and the trachea was cannulated with a small-caliber needle by instilling PBS endotracheally at […] pressure for 15 minutes. Two volumes of 300 μL of cold 1×PBS were instilled, gently aspirated, and pooled. Samples were centrifuged at 1000×g for 10 minutes at 4° C. The supernatant was collected, and total protein was quantified using the Pierce™ BCA Protein Assay Kit (Fisher Scientific Co, Houston, TX). The total cell count was done using the TC20 cell counter (BioRad, Hercules, CA). Similar method was followed for analyzing the protein concentration in BAL fluid collected from preterm lambs.

[1] = Safety profile of AVR-48 in mice or rat pups (IV, SC, IN; MTD/NOAEL); format: in vivo; conditions: C57BL/6J (mouse), Sprague Dawley Crl:CD (rat), mouse, rat, in vivo; for MTD at 3 days: read-out: maximum tolerated dose (MTD); for NOAEL at 3 days: read-out: no-observed-adverse-effect level (NOAEL)
Procedure: Safety Profile of AVR-48. To assess the safety of AVR-48 (compound 8), two doses of intravenous (IV) slow bolus injections or subcutaneous (SC) injections or intranasal (IN) instillation were given to mice or rat pups (postnatal day 3-5 or P3-P5), >6 h apart. The total daily doses were up to 100 mg/kg/day IV, and up to 150 mg/kg/day SC, for 3 consecutive days. […] There was no change in any of the hematological or clinical chemistry parameters. Signs of discoloration, swelling, and macroscopic and microscopic signs of local irritation occurred at the site of administration in all treatment groups and were attributed to the administration vehicle (formulation of 10% DMSO, 20% Tetraglycol, and 20% PEG 400 in sterile water). […] Based on the parameters monitored in this study, the maximum tolerated dose (MTD) and no-observed-adverse-effect level (NOAEL) were considered to be 100 mg/kg/day via IV and 150 mg/kg/day via SC routes of dosing.
Animals. C57BL/6J mice were purchased from The Jackson Laboratory (Bar Harbor, ME, USA) and were maintained in a breeding colony at Drexel University, Philadelphia, PA, USA. Animal procedures were performed in accordance with the NIH Guide for the Care and Use of Laboratory Animals and were approved by the Institutional Animal Care and Use Committee (IACUC) of Drexel University Philadelphia, PA (Protocol No. 20706). Neonatal rat pups born from female pregnant Sprague Dawley Crl:CD (SD) rats (Charles River Laboratories, St-Constant, QC, Canada) were used for the toxicology and PK studies to evaluate safety, determine the maximum tolerated dose (MTD) and the PK profile of AVR-48. A minimum 6-day acclimation period was allowed between receipt of the animals and the start of treatment to accustom the rats to the laboratory environment. All rat studies were approved by the IACUC of ITR Laboratories, Canada (Protocol No. 74691).
Formulation of AVR-48 for efficacy and toxicokinetic studies. For the mouse dose response efficacy studies, AVR-48 was reconstituted in 0.9% sterile normal saline to give a final dose concentration of […] as a colorless solution, and injected IP (30 μl) on P2 and P4. The PLGA encapsulated AVR-48 or the GFP-tagged analog was resuspended in deionized sterile water to make a nanosuspension with final dose concentration of 0.025, 0.05 and 0.11 mg/kg/drop. The surfactant Curosurf® (Cheisi Parma, Italy), available commercially, was delivered IN at a volume of 3 μl per nostril, on P2 and P4. For the toxicokinetic study of AVR-48 in rat pups, a formulation of 10% DMSO, 20% tetraglycol, 20% PEG 400, and 50% sterile water was made fresh before administration (Shah, Das et al. 2021).
Statistical Analysis. All statistical analyses were performed using Graph Pad Prism version 7.0 (GraphPad Software, San Diego, CA). The data are expressed as the mean±SEM with n=5 to 7 mice in each group. Groups were compared with the two-tailed unpaired t-test and one- or two-way analysis of variance (ANOVA), as appropriate. P<0.05 was considered statistically significant. For the toxicology and PK study, a generalized Analysis of Variance/Covariance (ANOVA/ANCOVA) test was performed on the numerical data (3 or more animals/groups) on the study as follows: An automatic transformation was used to analyze the data for homogeneity of variance using Levene's test. Parametric and non-parametric trends were analyzed using the Williams and the Shirley-Williams tests, respectively. Homogeneous data was analyzed using the ANOVA/ANCOVA, and the significance of intergroup differences between the control and test item-treated groups was analyzed using Dunnett's test. Heterogeneous data was analyzed using Kruskal-Wallis test and the significance of intergroup differences between the control and test item-treated groups was assessed using a nonparametric Dunnett's test. All data are reported as ±SEM. […]

[2] = vs vehicle treated lambs after 10 days

With `CC(=O)N[C@@H]1C(Oc2ccc([N+](=O)[O-])cc2)OC(CO)C(O)C1O` (some centres unmarked) [AVR-48] the “VEGF concentrations in BAL fluid” value (pre-term lamb BPD model; high dose (3.0 mg/kg)) was “no effect”, the “VEGF concentrations in BAL fluid” value (pre-term lamb BPD model; low doses) was “increase” and the “ICAM-1 concentrations in BAL fluid” value (pre-term lamb BPD model; [2]) was “increase”. The “total protein concentration in BAL fluid” value (pre-term lamb BPD model; [2]) was “decreased”, the MTD at 3 days ([1]; iv) was 100 mg/kg/day and the NOAEL at 3 days ([1]; iv) was 100 mg/kg/day. For the same compound, the MTD at 3 days ([1]; sc) was 150 mg/kg/day and the NOAEL at 3 days ([1]; sc) was 150 mg/kg/day.

Source: patent US12440471B2, “Compositions and methods for the treatment of bronchopulmonary dysplasia (BPD) and BPD-associated pulmonary hypertension” (AyuVis Research, Inc., priority 2021, dated 2025)
